# Columns and labels:
# [1] = Partition coefficient, log P of the compound; assay type: physicochemical; settings: octanol/water
# Plasmodium falciparum = assay: Antimalarial activity against Plasmodium falciparum 3D7; assay type: functional, organism-based
Compound,logP [1],IC50 (Plasmodium falciparum)
CS(=O)(=O)c1ccc(CC2CCC3(CC2)OOCCCOO3)cc1,2.65,
FC(F)(F)c1ccc(CC2CCC3(CC2)OOCCCOO3)cc1,4.79,0.0524 µM
Fc1ccc(CC2CCC3(CC2)OOCCCOO3)cc1,4.01,0.0683 µM
COC(=O)c1ccc(CC2CCC3(CC2)OOCCCOO3)cc1,3.75,0.0935 µM
CCOC(=O)CC1CCC2(CC1)OOCCCOO2,2.2,0.118 µM
C=C1COOC2(CCC(Cc3ccc(C(=O)OC)cc3)CC2)OOC1,4.05,0.116 µM
C=C1COOC2(CCC(Cc3ccc(C(F)(F)F)cc3)CC2)OOC1,4.95,0.0428 µM
C=C1COOC2(CCC(Cc3ccc(F)cc3)CC2)OOC1,4.2,0.0434 µM
N#Cc1ccc(CC2CCC3(CC2)OOCCCOO3)cc1,3.46,0.0997 µM
c1ccc(CC2CCC3(CC2)OOCCCOO3)cc1,3.93,0.0519 µM
CO[C@H]1O[C@@H]2O[C@@]3(C)CC[C@H]4[C@H](C)CC[C@@H]([C@H]1C)[C@@]24OO3 [ARTEMETHER],,0.0032 µM
O=C(CC1CCC2(CC1)OOCCCOO2)N1CCOCC1,1.16,0.689 µM
C[C@@H]1CC[C@H]2[C@@H](C)C(=O)O[C@@H]3O[C@@]4(C)CC[C@@H]1[C@]32OO4 [ARTEMISININ],,0.0092 µM
